Reference: PubChem BioAssay AID2060890 (Molecular Pharmacology Branch, DTP, NCI, 2025)

Tested on: LG0703-F948-PDC complex spheroid viability
Test: Anticancer human tumor LG0703-F948-PDC patient-derived lung adenocarcinoma cell line growth inhibition [RAS]
Conditions: for IC50: curve of first compound; for viability, T/C: stronger effect = lower value
Method in brief: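 Multi-cell-type spheroids: tumor cells plus HUVEC endothelial cells and mesenchymal stem cells. RAS-pathway inhibitors were combined with targeted agents, each dosed in half-log steps down from clinical Cmax, or from 10 microM when Cmax was unknown.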
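Also: spheroids exposed to agents for 7 days.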
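For viability, T/C in this document: 100% = DMSO vehicle wells.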

`CC1(C)CCC(Nc2ncc(C(F)(F)F)c(-c3c[nH]c4c(P(C)(C)=O)c(C#N)ccc34)n2)CN1` (centres undefined) + C#Cc1c(F)ccc2cc(O)cc(-c3ncc4c(N5CC6CCC(C5)N6)nc(OCC56CCCN5CC(F)C6)nc4c3F)c12 gave an IC50 (second compound 0.0316 µM) of over 300 nM, an IC50 (second compound 0.1 µM) of over 300 nM and an IC50 (second compound 0.316 µM) of over 300 nM. The IC50 (second compound 1 µM) was over 300 nM, the IC50 (second compound 3.16 µM) was over 300 nM and the IC50 (second compound 10 µM) was 3.26 nM. The viability, T/C (second compound 0.0316 µM, first compound 0.000949 µM) was 83.1%, the viability, T/C (second compound 0.0316 µM, first compound 0.003 µM) was 65.2% and the viability, T/C (second compound 0.0316 µM, first compound 0.00949 µM) was 61.7%. It also gave a viability, T/C (second compound 0.0316 µM, first compound 0.03 µM) of 55.8%, a viability, T/C (second compound 0.0316 µM, first compound 0.0949 µM) of 63.3% and a viability, T/C (second compound 0.0316 µM, first compound 0.3 µM) of 67.2%. It also gave a viability, T/C (second compound 0.1 µM, first compound 0.000949 µM) of 93%, a viability, T/C (second compound 0.1 µM, first compound 0.003 µM) of 80.7% and a viability, T/C (second compound 0.1 µM, first compound 0.00949 µM) of 63.9%. The viability, T/C (second compound 0.1 µM, first compound 0.03 µM) was 69.5%, the viability, T/C (second compound 0.1 µM, first compound 0.0949 µM) was 76.9% and the viability, T/C (second compound 0.1 µM, first compound 0.3 µM) was 66.3%. For the same molecule, the viability, T/C (second compound 0.316 µM, first compound 0.000949 µM) was 85.6%, the viability, T/C (second compound 0.316 µM, first compound 0.003 µM) was 58.7% and the viability, T/C (second compound 0.316 µM, first compound 0.00949 µM) was 62.5%. The viability, T/C (second compound 0.316 µM, first compound 0.03 µM) was 67.5%, the viability, T/C (second compound 0.316 µM, first compound 0.0949 µM) was 66% and the viability, T/C (second compound 0.316 µM, first compound 0.3 µM) was 71.2%. It also gave a viability, T/C (second compound 1 µM, first compound 0.000949 µM) of 62.3%, a viability, T/C (second compound 1 µM, first compound 0.003 µM) of 76.4% and a viability, T/C (second compound 1 µM, first compound 0.00949 µM) of 62.5%. The viability, T/C (second compound 1 µM, first compound 0.03 µM) was 59.5%, the viability, T/C (second compound 1 µM, first compound 0.0949 µM) was 68.9% and the viability, T/C (second compound 1 µM, first compound 0.3 µM) was 66.4%. For the same molecule, the viability, T/C (second compound 3.16 µM, first compound 0.000949 µM) was 65.7%, the viability, T/C (second compound 3.16 µM, first compound 0.003 µM) was 57.5% and the viability, T/C (second compound 3.16 µM, first compound 0.00949 µM) was 45.1%. It also gave a viability, T/C (second compound 3.16 µM, first compound 0.03 µM) of 53%, a viability, T/C (second compound 3.16 µM, first compound 0.0949 µM) of 63.9% and a viability, T/C (second compound 3.16 µM, first compound 0.3 µM) of 54.4%. It also gave a viability, T/C (second compound 10 µM, first compound 0.000949 µM) of 58.3%, a viability, T/C (second compound 10 µM, first compound 0.003 µM) of 48.9% and a viability, T/C (second compound 10 µM, first compound 0.00949 µM) of 37.6%. For the same molecule, the viability, T/C (second compound 10 µM, first compound 0.03 µM) was 47.7%, the viability, T/C (second compound 10 µM, first compound 0.0949 µM) was 50.3% and the viability, T/C (second compound 10 µM, first compound 0.3 µM) was 44.4%.

`CC(C)NCC(C(=O)N1CCN(c2ncnc3c2C(C)CC3O)CC1)c1ccc(Cl)cc1` (centres undefined) + CCn1c(-c2cc(N3CCN(C)CC3)cnc2C(C)OC)c2c3cc(ccc31)-c1csc(n1)CC(NC(=O)C1CC1C)C(=O)N1CCCC(N1)C(=O)OCC(C)(C)C2 gave an IC50 (second compound 0.000949 µM) of 127 nM, an IC50 (second compound 0.003 µM) of 34.1 nM and an IC50 (second compound 0.00949 µM) of under 31.6 nM. The IC50 (second compound 0.03 µM) was under 31.6 nM, the IC50 (second compound 0.0949 µM) was under 31.6 nM and the IC50 (second compound 0.3 µM) was under 31.6 nM. It also gave a viability, T/C (second compound 0.000949 µM, first compound 0.0316 µM) of 64.1%, a viability, T/C (second compound 0.000949 µM, first compound 0.1 µM) of 54% and a viability, T/C (second compound 0.000949 µM, first compound 0.316 µM) of 37.1%. It also gave a viability, T/C (second compound 0.000949 µM, first compound 1 µM) of 30%, a viability, T/C (second compound 0.000949 µM, first compound 3.16 µM) of 17.6% and a viability, T/C (second compound 0.000949 µM, first compound 10 µM) of 14.5%. For the same molecule, the viability, T/C (second compound 0.003 µM, first compound 0.0316 µM) was 51%, the viability, T/C (second compound 0.003 µM, first compound 0.1 µM) was 35% and the viability, T/C (second compound 0.003 µM, first compound 0.316 µM) was 18%. The viability, T/C (second compound 0.003 µM, first compound 1 µM) was 13.1%, the viability, T/C (second compound 0.003 µM, first compound 3.16 µM) was 12.7% and the viability, T/C (second compound 0.003 µM, first compound 10 µM) was 8.04%. For the same molecule, the viability, T/C (second compound 0.00949 µM, first compound 0.0316 µM) was 23.2%, the viability, T/C (second compound 0.00949 µM, first compound 0.1 µM) was 16.7% and the viability, T/C (second compound 0.00949 µM, first compound 0.316 µM) was 10.3%. For the same molecule, the viability, T/C (second compound 0.00949 µM, first compound 1 µM) was 7.8%, the viability, T/C (second compound 0.00949 µM, first compound 3.16 µM) was 6.46% and the viability, T/C (second compound 0.00949 µM, first compound 10 µM) was 3.27%. For the same molecule, the viability, T/C (second compound 0.03 µM, first compound 0.0316 µM) was 11.7%, the viability, T/C (second compound 0.03 µM, first compound 0.1 µM) was 13.7% and the viability, T/C (second compound 0.03 µM, first compound 0.316 µM) was 7.73%. For the same molecule, the viability, T/C (second compound 0.03 µM, first compound 1 µM) was 3.93%, the viability, T/C (second compound 0.03 µM, first compound 3.16 µM) was 3.49% and the viability, T/C (second compound 0.03 µM, first compound 10 µM) was 1%. It also gave a viability, T/C (second compound 0.0949 µM, first compound 0.0316 µM) of 10%, a viability, T/C (second compound 0.0949 µM, first compound 0.1 µM) of 6.85% and a viability, T/C (second compound 0.0949 µM, first compound 0.316 µM) of 4.55%. It also gave a viability, T/C (second compound 0.0949 µM, first compound 1 µM) of 3.71%, a viability, T/C (second compound 0.0949 µM, first compound 3.16 µM) of 1.27% and a viability, T/C (second compound 0.0949 µM, first compound 10 µM) of 0.64%. For the same molecule, the viability, T/C (second compound 0.3 µM, first compound 0.0316 µM) was 9.37%, the viability, T/C (second compound 0.3 µM, first compound 0.1 µM) was 5.76% and the viability, T/C (second compound 0.3 µM, first compound 0.316 µM) was 5.01%. The viability, T/C (second compound 0.3 µM, first compound 1 µM) was 3.25%, the viability, T/C (second compound 0.3 µM, first compound 3.16 µM) was 1.87% and the viability, T/C (second compound 0.3 µM, first compound 10 µM) was 0.61%.
